PMC7944402, “Resin-acid derivatives bind to multiple sites on the voltage-sensor domain of the Shaker potassium channel” (The Journal of General Physiology, 2021)
“And” between values parts separate entries of the source, which are not always exact repeats. Equal values may be shown once.

Key:
Type in all cases: cell-based
[1] = biological target: T1, Shaker KV channel R362Q/R365Q/W454A (Drosophila melanogaster, UniProt P08510, DEL6-46/R362Q/R365Q/W454A); assay: Two-electrode voltage clamp in Xenopus oocytes: R362Q/R365Q/W454A; conditions: 100 μM, pH 9.0, R362Q/R365Q/W454A
T1 construct: expressed in transfected cells; host or cells: Xenopus laevis oocytes (RNA injection)
T1 sequence (P08510 with tags, fused parts or gaps DEL6-46/R362Q/R365Q/W454A): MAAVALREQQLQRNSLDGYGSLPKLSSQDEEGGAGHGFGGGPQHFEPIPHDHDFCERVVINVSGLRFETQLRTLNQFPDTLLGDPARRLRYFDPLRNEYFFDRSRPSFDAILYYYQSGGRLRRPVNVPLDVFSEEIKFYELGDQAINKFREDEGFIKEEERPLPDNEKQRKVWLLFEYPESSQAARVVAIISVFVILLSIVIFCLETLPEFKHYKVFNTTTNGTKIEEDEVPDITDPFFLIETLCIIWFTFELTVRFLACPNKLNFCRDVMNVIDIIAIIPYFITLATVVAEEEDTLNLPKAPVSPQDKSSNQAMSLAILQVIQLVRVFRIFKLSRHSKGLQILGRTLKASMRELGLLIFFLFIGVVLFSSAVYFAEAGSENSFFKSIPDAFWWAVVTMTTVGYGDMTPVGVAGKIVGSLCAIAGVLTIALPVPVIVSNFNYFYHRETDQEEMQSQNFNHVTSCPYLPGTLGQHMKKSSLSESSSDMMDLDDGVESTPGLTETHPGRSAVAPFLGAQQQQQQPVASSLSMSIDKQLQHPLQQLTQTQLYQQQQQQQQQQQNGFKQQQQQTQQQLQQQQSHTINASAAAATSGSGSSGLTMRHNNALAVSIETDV
Description: (§1) The Shaker H4 channel (GenBank accession no. NM_167595.3; [Kamb et al., 1987]), with removed N-type inactivation due to a Δ6-46 deletion (ShH4IR, in Bluescript II KS(+) plasmid; [Hoshi et al., 1990]), is referred to as the WT Shaker KV channel. Addition of two positively charged arginines (M356R/A359R) at the extracellular top of the voltage sensor increases the effect of charged lipophilic compounds ([Ottosson et al., 2014], [2015], [2017]). […] However, for the resin-acid derivatives studied in the present investigation, R362 reduced the effect. Therefore, we specifically refer to the two added arginines just outside S4 (M356R/A359R) as the 2R motif. […]
(§2) Electrophysiological experiments were made 1–6 d after RNA injection. K^+ currents were measured with the two-electrode voltage-clamp technique (GeneClamp 500B amplifier; Axon Instruments) as described previously ([Ottosson et al., 2015]; [Silverå Ejneby et al., 2018]). […]
(§3) The conductance, G(V), was calculated as G(V)=I/(V−VK), (1) where I is the steady-state current measured at the end of each test-voltage sweep (100 ms after onset; Clampfit 10.5; Molecular Devices), V is the absolute membrane voltage, and VK is the reversal potential for K^+ ions (set to −80 mV). […] The resin-acid–induced G(V) shift was calculated as V1/2 (compound) − V1/2 (control). The relative change in GMAX was calculated as GMAX (compound) / GMAX (control). […]

[2] = biological target: T2, WT Shaker KV channel (ShH4IR) (Drosophila melanogaster, UniProt P08510, DEL6-46); assay: Two-electrode voltage clamp of Shaker KV channels expressed in Xenopus laevis oocytes: WT
T2 construct: expressed in transfected cells; host or cells: Xenopus laevis oocytes (RNA injection)
T2 sequence (P08510 other isoform, or with tags, fused parts or gaps DEL6-46): as the sequence (P08510 with tags, fused parts or gaps DEL6-46/R362Q/R365Q/W454A) above, with Q321R, Q324R, A413W counted along it
Description: The Shaker H4 channel (GenBank accession no. NM_167595.3; [Kamb et al., 1987]), with removed N-type inactivation due to a Δ6-46 deletion (ShH4IR, in Bluescript II KS(+) plasmid; [Hoshi et al., 1990]), is referred to as the WT Shaker KV channel. […] Therefore, we specifically refer to the two added arginines just outside S4 (M356R/A359R) as the 2R motif. Mutations were introduced with site-directed mutagenesis and verified with sequencing as described previously ([Börjesson et al., 2010]). RNA injection and oocyte handling were performed as before ([Börjesson et al., 2010]; [Ottosson et al., 2015]). All animal experiments were approved by the Linköping’s local Animal Care and Use Committee.
Electrophysiological experiments were made 1–6 d after RNA injection. K^+ currents were measured with the two-electrode voltage-clamp technique (GeneClamp 500B amplifier; Axon Instruments) as described previously ([Ottosson et al., 2015]; [Silverå Ejneby et al., 2018]). The amplifier’s leak compensation was used, and the currents were low-pass filtered at 5 kHz. The control solution contained (in mM) 88 NaCl, 1 KCl, 15 HEPES, 0.4 CaCl2, and 0.8 MgCl2, and pH was set with NaOH. All experiments were made at room temperature (20°C–23°C). The holding potential was set to −80 mV (or −100 mV if the mutant was not fully closed at −80 mV).
Stock solutions were stored at −20°C and diluted in control solution just before experiments. The test solution was added to the oocyte bath manually with a syringe. […] To make sure all Wu50 molecules were negatively charged, the pH of the control solution was set to 9.0 before the experiments.
The conductance, G(V), was calculated as G(V)=I/(V−VK), (1) where I is the steady-state current measured at the end of each test-voltage sweep (100 ms after onset; Clampfit 10.5; Molecular Devices), V is the absolute membrane voltage, and VK is the reversal potential for K^+ ions (set to −80 mV). The conductance was fitted with a Boltzmann equation (GraphPad Prism 5; GraphPad Software, Inc.) GK(V)=GMAX/{1+exp[(V½−V)/s]}, (2) where GMAX is the amplitude (maximal conductance) of the curve, V is the absolute membrane voltage, V1/2 is the midpoint, and s is the slope. The resin-acid–induced G(V) shift was calculated as V1/2 (compound) − V1/2 (control). The relative change in GMAX was calculated as GMAX (compound) / GMAX (control). The concentration dependence for the G(V) shifts was calculated as ΔV= ΔVMAX/(1 +EC50/c), (3) where ΔV is the voltage shift, ΔVMAX is the voltage shift at saturating concentration, c is the concentration of the tested compound, and EC50 is the concentration at which half-maximum response occurs.

[3] = biological target: T3, Shaker KV channel M356R/A359R/R362Q/W454A (Drosophila melanogaster, UniProt P08510, A359R/DEL6-46/M356R/R362Q/W454A); assay: Two-electrode voltage clamp in Xenopus oocytes: 2R motif/R362Q/W454A; conditions: 100 μM, pH 9.0, M356R/A359R/R362Q/W454A
T3 construct: expressed in transfected cells; host or cells: Xenopus laevis oocytes (RNA injection)
T3 sequence (P08510 with tags, fused parts or gaps DEL6-46/M356R/A359R/R362Q/W454A): as the sequence (P08510 with tags, fused parts or gaps DEL6-46/R362Q/R365Q/W454A) above, with M315R, A318R, Q324R counted along it
Description: as §1, §2, §3

[4] = biological target: T4, Shaker KV channel R362Q/R365Q/W454A/F280I (Drosophila melanogaster, UniProt P08510, DEL6-46/F280I/R362Q/R365Q/W454A); assay: Two-electrode voltage clamp in Xenopus oocytes: R362Q/R365Q/W454A/F280I; conditions: 100 μM, pH 9.0, R362Q/R365Q/W454A/F280I
T4 construct: expressed in transfected cells; host or cells: Xenopus laevis oocytes (RNA injection)
T4 sequence (P08510 other isoform, or with tags, fused parts or gaps DEL6-46/F280I/R362Q/R365Q/W454A): as the sequence (P08510 with tags, fused parts or gaps DEL6-46/R362Q/R365Q/W454A) above, with F239I counted along it
Description: as §1, §2, §3

Compound: C[C@@]1(C(=O)O)CCC[C@]2(C)c3cc(Cl)c(Cl)c(Cl)c3CC[C@@H]12 [Wu50]
- GMAX (rel.) [1]: 0.57 rel.
- ΔVG(V) (G(V) shift) [1]: −24.7 ± 3.0 mV and -24.7 mV
- ΔVG(V) (G(V) shift) ([2]; 100 μM, pH 9.0, WT): −25.5 ± 1.4 mV and -25.5 mV
- GMAX (rel.) ([2]; 100 μM, pH 9.0, WT, GMAX (compound)/GMAX (control)): 1.36 rel.
- EC50 ([2]; WT, pH 9.0, concentration-response (Eq. 3), read-out: EC50 of the G(V) shift (apparent affinity)): 29.1 ± 3.5 µM
- GMAX (rel.) [3]: 1.50 rel.
- ΔVG(V) (G(V) shift) [3]: −56.6 ± 5.8 mV and -56.6 mV
- GMAX (rel.) [4]: 0.05 rel.
